Experimental data taken from patent US12473295B2, “Substituted straight chain spiro derivatives” (Janssen Pharmaceutica NV, priority 2019, dated 2025).
Where a name gives a salt, the structure may show the parent alone. Read-outs that look alike come from different tables or passages of the source.

How the values were obtained:
OCI-AML3 cells = experiment: Proliferation assay (spheroid growth, 8 days), OCI-AML3; format: cell-based, human; conditions: OCI-AML3, 8 days
Procedure, shortened: (§1)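 IC50 values derive from day-8 spheroid confluence, normalized between DMSO-treated wells and the highest dose of a reference compound, fitted with a variable slope. Cells grew 8 days at 37° C under a compound concentration series in 0.3% DMSO.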

[1] = biological target: menin/MLL (terbium chelate-labeled menin, FITC-MBM1 peptide) (Homo sapiens (Human), UniProt O00255); experiment: Menin/MLL homogenous time-resolved fluorescence (HTRF) assay; format: binding;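 note: IC50 from percent inhibition of HTRF signal, normalized between wells without competitor and wells with a saturating competitor that displaces FITC-MBM1 from His-tagged menin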
MOLM14 cells = experiment: Proliferation assay (spheroid growth, 8 days), MOLM14; format: cell-based, human; conditions: MOLM14, 8 days, read-out: spheroid assay_OneTime MOLM14 IC50;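 note: spheroid size read as confluence by live-cell imaging, compounds added at a range of concentrations with 0.3% DMSO, DMSO-treated wells = 0%, highest reference dose = low control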
KO-52 cells = experiment: Proliferation assay (spheroid growth, 8 days), KO-52 control cell line; format: cell-based, human; conditions: read-out: spheroid assay_OneTime KO-52 IC50
Procedure, shortened: as §1

MEIS1 mRNA = MEIS1 mRNA expression assay (Quantigene Singleplex) in MOLM14 cells; format: cell-based, human; conditions: 48 hours incubation;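 note: MEIS1 transcript levels read by probe hybridization and normalized to RPL28 mRNA, with IC50 fitted to fold changes across a rising compound concentration series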
[2] = HTRF-30 min incubation IC50, 30 min incubation

menin/MLL (terbium chelate-labeled menin, FITC-MBM1 peptide), sequence (O00255 other isoform, or with tags, fused parts or gaps): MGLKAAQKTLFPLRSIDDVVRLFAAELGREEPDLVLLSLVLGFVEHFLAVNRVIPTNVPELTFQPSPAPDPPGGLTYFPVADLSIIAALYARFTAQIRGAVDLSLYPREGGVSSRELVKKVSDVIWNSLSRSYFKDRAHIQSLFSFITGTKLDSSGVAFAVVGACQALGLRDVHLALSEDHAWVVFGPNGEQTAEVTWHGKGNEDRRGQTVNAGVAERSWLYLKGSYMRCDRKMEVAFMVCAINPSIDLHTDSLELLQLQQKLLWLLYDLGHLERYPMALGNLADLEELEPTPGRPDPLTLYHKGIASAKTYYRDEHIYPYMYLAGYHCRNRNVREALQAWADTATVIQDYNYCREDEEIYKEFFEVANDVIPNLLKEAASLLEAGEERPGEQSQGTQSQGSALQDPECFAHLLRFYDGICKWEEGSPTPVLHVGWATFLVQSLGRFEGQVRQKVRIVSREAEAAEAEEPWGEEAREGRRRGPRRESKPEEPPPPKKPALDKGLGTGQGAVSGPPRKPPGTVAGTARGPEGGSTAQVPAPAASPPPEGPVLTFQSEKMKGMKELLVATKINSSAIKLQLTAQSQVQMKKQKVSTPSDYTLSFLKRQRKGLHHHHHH

Row | Compound | IC50 (OCI-AML3 cells; Homo sapiens, OCI-AML-3, […]) [nM] | IC50 [1, 2] [nM] | IC50 (MOLM14 cells; Homo sapiens, MOLM-14, […]) [nM] | IC50 (MEIS1 mRNA; Homo sapiens, MOLM-14, 48 h) [nM] | IC50 (OCI-AML3 cells) [nM] | IC50 ([1]; read-out: HTRF-30 min incubation IC50, 30 min incubation) [nM] | IC50 (MOLM14 cells) [nM] | IC50 (MEIS1 mRNA) [nM] | IC50 (KO-52 cells; Homo sapiens, […]) [nM] | IC50 (KO-52 cells) [nM]
1 | CCCN(C)CCC[C@@H](C(C)C)N1CC2(CCN(c3ncnnc3Oc3ccc(F)cc3C(=O)N(CC)C(C)C)C2)C1 (single isomer, unassigned) [Compound 128, (*S)—N-ethyl-5-fluoro-N-isopropyl-2-((5-(2-(2-methyl-6-(methyl(propyl)amino)hexan-3-yl)-2,6-diazaspiro[3.4]octan-6-yl)-1,2,4-triazin-6-yl)oxy)benzamide fumarate] | 1990 | 1.64 | 630 | ~680 |  |  |  |  | 11400 | 
2 | CCNCC[C@H](C(C)C)N1CC2(CCN(c3ncnnc3Oc3ccc(F)cc3C(=O)N(CC)C(C)C)C2)C1 (single isomer, unassigned) [Compound 272, (*R)—N-ethyl-2-((5-(2-(1-(ethylamino)-4-methylpentan-3-yl)-2,6-diazaspiro[3.4]octan-6-yl)-1,2,4-triazin-6-yl)oxy)-5-fluoro-N-isopropylbenzamide formate] | 440 | 0.58 | 130 | 170 |  |  |  |  | > 15000 | 
3 | CCN(C(=O)c1cc(F)ccc1Oc1nnccc1N1CCC2(C1)CN([C@@H](CCCN(C)C)C(C)C)C2)C(C)C (single isomer, unassigned) [Compound 78, (*S)-2-((4-(2-(6-(dimethylamino)-2-methylhexan-3-yl)-2,6-diazaspiro[3.4]octan-6-yl)pyridazin-3-yl)oxy)-N-ethyl-5-fluoro-N-isopropylbenzamide] |  |  |  |  | 12200 | 3.69 | > 940 | > 1000 |  | > 15000
4 | CCN(C(=O)c1cc(F)ccc1Oc1nncnc1N1CCC2(C1)CN([C@H](CCCNCC(F)F)C(C)C)C2)C(C)C [Compound 15, (R)-2-((5-(2-(6-((2,2-difluoroethyl)amino)-2-methylhexan-3-yl)-2,6-diazaspiro[3.4]octan-6-yl)-1,2,4-triazin-6-yl)oxy)-N-ethyl-5-fluoro-N-isopropylbenzamide] | 460 | 0.25 | 100 | 71 |  |  |  |  | 3700 | 
5 | CCN(C(=O)c1cc(F)ccc1Oc1nncnc1N1CCC2(C1)CN([C@H](CCN)C(C)C)C2)C(C)C (single isomer, unassigned) [Compound 219, (*R)-2-((5-(2-(1-amino-4-methylpentan-3-yl)-2,6-diazaspiro[3.4]octan-6-yl)-1,2,4-triazin-6-yl)oxy)-N-ethyl-5-fluoro-N-isopropylbenzamide fumarate] | 430 | 0.27 | 130 | ~230 |  |  |  |  | > 15000 | 
6 | CCN(C(=O)c1cc(F)ccc1Oc1nncnc1N1CCC2(C1)CN([C@H](CCCN(C)CC(C)(C)O)C(C)C)C2)C(C)C [Compound 140, (R)-N-ethyl-5-fluoro-2-((5-(2-(6-((2-hydroxy-2-methylpropyl)(methyl)amino)-2-methylhexan-3-yl)-2,6-diazaspiro[3.4]octan-6-yl)-1,2,4-triazin-6-yl)oxy)-N-isopropylbenzamide fumarate] | 330 | 0.093 | 110 | 28 |  |  |  |  | 5750 | 

Continued by falling IC50 (OCI-AML3 cells; Homo sapiens, OCI-AML-3, […]), values first:

Row | IC50 (OCI-AML3 cells; Homo sapiens, OCI-AML-3, […]) [nM] | IC50 [1, 2] [nM] | IC50 (MOLM14 cells; Homo sapiens, MOLM-14, […]) [nM] | IC50 (MEIS1 mRNA; Homo sapiens, MOLM-14, 48 h) [nM] | IC50 (OCI-AML3 cells) [nM] | IC50 ([1]; read-out: HTRF-30 min incubation IC50, 30 min incubation) [nM] | IC50 (MOLM14 cells) [nM] | IC50 (MEIS1 mRNA) [nM] | Compound | IC50 (KO-52 cells; Homo sapiens, […]) [nM] | IC50 (KO-52 cells) [nM]
7 | 220 | 0.071 | 12 | 51 |  |  |  |  | CCN(C(=O)c1cc(F)ccc1Oc1nncnc1N1CCC2(C1)CN([C@H](CCCN(C)CCCOC)C(C)C)C2)C(C)C [Compound 142, (R)-N-ethyl-5-fluoro-N-isopropyl-2-((5-(2-(6-((3-methoxypropyl)(methyl)amino)-2-methylhexan-3-yl)-2,6-diazaspiro[3.4]octan-6-yl)-1,2,4-triazin-6-yl)oxy)benzamide fumarate] | > 15000 | 
8 | 190 | ~0.16 | 16 | 15 |  |  |  |  | CCN(C(=O)c1cc(F)ccc1Oc1nncnc1N1CCC2(C1)CN([C@H](C[C@H](O)CN(C)C(C)C)C(C)C)C2)C(C)C (single isomer, unassigned) [Compound 325, N-ethyl-5-fluoro-2-((5-(2-((3*R,5*S)-5-hydroxy-6-(isopropyl(methyl)amino)-2-methylhexan-3-yl)-2,6-diazaspiro[3.4]octan-6-yl)-1,2,4-triazin-6-yl)oxy)-N-isopropylbenzamide fumarate] | > 15000 | 
9 | 160 | 0.18 | 45 | 25 |  |  |  |  | CCN(C(=O)c1cc(F)ccc1Oc1nncnc1N1CCC2(C1)CN([C@H](CCCN(C)CC(C)(C)OC)C(C)C)C2)C(C)C [Compound 137, (R)-N-ethyl-5-fluoro-N-isopropyl-2-((5-(2-(6-((2-methoxy-2-methylpropyl)(methyl)amino)-2-methylhexan-3-yl)-2,6-diazaspiro[3.4]octan-6-yl)-1,2,4-triazin-6-yl)oxy)benzamide fumarate] | 7290 | 
10 | 120 | 0.089 | 18 | 20 |  |  |  |  | CCN(C(=O)c1cc(F)ccc1Oc1nncnc1N1CCC2(C1)CN([C@H](CCCN[C@@H](CO)COC)C(C)C)C2)C(C)C [Compound 163, N-ethyl-5-fluoro-2-((5-(2-((R)-6-(((S)-1-hydroxy-3-methoxypropan-2-yl)amino)-2-methylhexan-3-yl)-2,6-diazaspiro[3.4]octan-6-yl)-1,2,4-triazin-6-yl)oxy)-N-isopropylbenzamide] | > 15000 | 
11 | 75 | 0.3 | 38 | 42 |  |  |  |  | CC(C)[C@@H](CCCN(C)C[C@@H](C)C(N)=O)N1CC2(CCN(c3ncnnc3Oc3ccc(F)cc3C(=O)N(C(C)C)C(C)C)C2)C1 (single isomer, unassigned) [Compound 203, 2-((5-(2-((*R)-6-(((S)-3-amino-2-methyl-3-oxopropyl)(methyl)amino)-2-methylhexan-3-yl)-2,6-diazaspiro[3.4]octan-6-yl)-1,2,4-triazin-6-yl)oxy)-5-fluoro-N,N-diisopropylbenzamide fumarate] | > 15000 | 
12 | 65 | 0.16 | 17 | 18 |  |  |  |  | CCN(C(=O)c1cc(F)ccc1Oc1nncnc1N1CCC2(C1)CN([C@H](CCCN(C)[C@@H](CO)COC)C(C)C)C2)C(C)C [Compound 167, N-ethyl-5-fluoro-2-((5-(2-((R)-6-(((S)-1-hydroxy-3-methoxypropan-2-yl)(methyl)amino)-2-methylhexan-3-yl)-2,6-diazaspiro[3.4]octan-6-yl)-1,2,4-triazin-6-yl)oxy)-N-isopropylbenzamide fumarate] | > 15000 | 
13 | 64 | 0.062 | 24 | 7.3 |  |  |  |  | CCN(C(=O)c1cc(F)ccc1Oc1nncnc1N1CCC2(C1)CN([C@H](CCCN(C)C[C@@H](COC)OC)C(C)C)C2)C(C)C (single isomer, unassigned) [Compound 177, 2-((5-(2-((R)-6-(((*S)-2,3-dimethoxypropyl)(methyl)amino)-2-methylhexan-3-yl-2,6-diazaspiro[3.4]octan-6-yl)-1,2,4-triazin-6-yl)oxy)-N-ethyl-5-fluoro-N-isopropylbenzamide fumarate] | > 15000 | 
